Tests used:
[1] = biological target: T1, MERTK (Homo sapiens, UniProt Q12866); assay: Kinase profiling (ProQinase 33PanQinase Activity Assay), MERTK (table: MERK); assay type: biochemical
T1 sequence (Q12866 21-999): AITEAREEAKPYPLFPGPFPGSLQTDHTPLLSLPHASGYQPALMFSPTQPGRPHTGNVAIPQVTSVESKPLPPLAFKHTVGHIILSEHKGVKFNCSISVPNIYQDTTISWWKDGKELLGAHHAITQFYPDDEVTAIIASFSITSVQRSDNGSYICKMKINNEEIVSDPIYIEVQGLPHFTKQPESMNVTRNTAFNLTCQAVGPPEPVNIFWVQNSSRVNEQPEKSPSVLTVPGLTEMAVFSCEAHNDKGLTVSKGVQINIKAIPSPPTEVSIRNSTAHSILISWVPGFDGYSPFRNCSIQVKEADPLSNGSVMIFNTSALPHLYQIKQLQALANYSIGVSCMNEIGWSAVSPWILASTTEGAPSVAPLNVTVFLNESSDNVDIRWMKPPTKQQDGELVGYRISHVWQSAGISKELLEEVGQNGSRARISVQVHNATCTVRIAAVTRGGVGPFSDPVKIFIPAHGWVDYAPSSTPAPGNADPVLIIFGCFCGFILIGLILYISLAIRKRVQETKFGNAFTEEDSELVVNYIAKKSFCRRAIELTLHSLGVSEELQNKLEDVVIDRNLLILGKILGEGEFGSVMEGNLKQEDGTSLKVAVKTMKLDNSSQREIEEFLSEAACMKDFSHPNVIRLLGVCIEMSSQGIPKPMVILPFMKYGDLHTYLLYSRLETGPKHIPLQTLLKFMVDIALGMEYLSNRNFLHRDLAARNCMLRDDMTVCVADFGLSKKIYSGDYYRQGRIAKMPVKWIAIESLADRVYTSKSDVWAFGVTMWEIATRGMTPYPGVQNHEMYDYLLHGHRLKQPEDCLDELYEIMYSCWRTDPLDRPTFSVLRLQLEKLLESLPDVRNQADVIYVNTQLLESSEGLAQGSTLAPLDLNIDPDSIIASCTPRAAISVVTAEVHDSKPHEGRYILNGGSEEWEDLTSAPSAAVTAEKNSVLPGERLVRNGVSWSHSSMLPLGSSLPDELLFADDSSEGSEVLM
Method: (§1) The kinase profiling of compound 1-08 at 10 and 50 μM was performed by ProQinase GmbH (Freiburg, Germany). A radiometric protein kinase assay (^33PanQinase® Activity Assay) and the non-radiometric ADP-Glo™ Assay (Promega, Madison, Wis., USA) were used for measuring kinase activity of 387 protein kinases and 13 lipid kinases, respectively. The results are shown in Table 3 (only the top 10 kinases are listed, and the selectivity score describes the portion of kinases inhibited more than 50% in relation to all tested kinases).
At 10 μM, compound 1-08 inhibited MERTK at the 51% level. Several other kinases were inhibited at 50 μM concentration.

[2] = biological target: T2, Porcine brain tubulin (Sus scrofa, UniProt P02550+P02554); assay: Fluorescence-based tubulin polymerisation assay; assay type: biochemical; conditions: 37° C., FIG. 10A
T2 construct: purchased Cytoskeleton, Colo., USA (Tubulin Polymerisation Assay kit); host or cells: porcine brain (tissue-purified)
Method: (§2) FIGS. 10A-10D. […] (10A) Compound 1-08 inhibits tubulin polymerisation in vitro. Data are expressed as mean from at least 3 independent experiments; each data point was performed in triplicates. (10B) U87 cells treated with compound 1-08 (24 h) were stained with Alexa488-labelled anti-β-tubulin antibody (green) or DAPI (blue). Treatment profoundly disturbed the microtubule network and caused formation of multinucleated cell (white arrows). White scale bar represents 50 μm. Multinucleated cells were manually counted and at least 200 cells were counted for each sample. Data in the bar graph (10C) are expressed as mean±SEM (n=3; * P<0.05, *** P<0.001; 1-way ANOVA followed by Newman-Keuls posttest). (10D) U87 cells were treated with compound 1-08 (48 h), tubulin and DNA were stained as in (10B). Treatment with 1-08 caused defective mitotic spindle formation. Representative images from 3 independent experiments are shown. White scale bar represents 2 μm.
(§3) The effect of compound 1-08 on tubulin polymerisation and mitotic spindle formation was also investigated. The fluorescence-based tubulin polymerisation assay was conducted in the final volume of 55 μL using the Tubulin Polymerisation Assay kit (Cytoskeleton, Colo., USA) as per the manufacturer's instructions. Porcine brain tubulin was incubated with test compounds (paclitaxel, vinblastine and compound 1-08) at 37° C. and fluorescence was measured using FLUOstar Omega microplate reader (BMG Labtech, Ortenberg, Germany; excitation at 355 nm and emission at 460 nm). […] To test whether compound 1-08 alters microtubules in vivo, U87 glioblastoma cells were treated with compound 1-08 and the effect on the microtubules was determined by immunofluorescence staining of β-tubulin. […] The consequence of microtubule depolymerisation induced by compound 13 was disrupted spindle assembly (FIG. 10D). In untreated U87 cells undergoing mitosis, microtubules are assembled into bipolar spindles (control images).

[3] = system: U87vIII; assay: Alamar blue cell viability assay, U87vIII cells; assay type: cell-based; conditions: 72 hours of treatment; mean±SEM, three independent experiments
Method: U87 and U251 cell lines were obtained from the European Collection of Cell Cultures (ECACC) through CellBank Australia. U87-EGFRvIII cell line was obtained from their lab of origin (Nishikawa et al., 1994, Proc Natl Acad Sci USA 91: 7727-7731) and tested for EGFR amplification and mutation by immunoblotting and flow cytometry. Cells were cultured in DMEM medium (Invitrogen by Life Technologies, Carlsbad, Calif., USA) supplemented with 10% FBS (Sigma-Aldrich) at 37° C. and 5% CO2. Primary gliomaspheres (RN1, classical; WK1, mesenchymal) were derived from glioblastoma specimens (Day et al., 2013, Cancers 5: 357-371; Day et al., 2013, Cancer Cell 23: 238-248), maintained in StemPro NSC serum-free media supplemented with EGF and FGF (all Life Technologies), and grown on matrigel-coated flasks (Pollard et al., 2009, Cell Stem Cell 4: 568-580).
Cell viability was determined using Alamar blue assay after 72 hours of treatment (Table 2). EC50 values were calculated using non-linear regression on Graph Pad Prism version 5. c Log P values calculated using ChemBioDraw Software. Results are mean±SEM from three independent experiments performed in triplicates.

[4] = system: U87 glioblastoma cells; assay: Immunofluorescence staining of β-tubulin in treated U87 cells (microtubules, multinucleated cells, mitotic spindle); assay type: cell-based
Method: as §2, §3

[5] = system: 387 protein kinases and 13 lipid kinases; assay: Kinase profiling, selectivity score over the whole panel; assay type: biochemical
Method: as §1

[6] = biological target: IGF1R (Homo sapiens, UniProt P08069); assay: Kinase profiling (ProQinase 33PanQinase Activity Assay), IGF1R; assay type: biochemical; conditions: read-out: residual activity, IGF1R
Method: as §1

Chain of IGF1R (P08069 31-1367): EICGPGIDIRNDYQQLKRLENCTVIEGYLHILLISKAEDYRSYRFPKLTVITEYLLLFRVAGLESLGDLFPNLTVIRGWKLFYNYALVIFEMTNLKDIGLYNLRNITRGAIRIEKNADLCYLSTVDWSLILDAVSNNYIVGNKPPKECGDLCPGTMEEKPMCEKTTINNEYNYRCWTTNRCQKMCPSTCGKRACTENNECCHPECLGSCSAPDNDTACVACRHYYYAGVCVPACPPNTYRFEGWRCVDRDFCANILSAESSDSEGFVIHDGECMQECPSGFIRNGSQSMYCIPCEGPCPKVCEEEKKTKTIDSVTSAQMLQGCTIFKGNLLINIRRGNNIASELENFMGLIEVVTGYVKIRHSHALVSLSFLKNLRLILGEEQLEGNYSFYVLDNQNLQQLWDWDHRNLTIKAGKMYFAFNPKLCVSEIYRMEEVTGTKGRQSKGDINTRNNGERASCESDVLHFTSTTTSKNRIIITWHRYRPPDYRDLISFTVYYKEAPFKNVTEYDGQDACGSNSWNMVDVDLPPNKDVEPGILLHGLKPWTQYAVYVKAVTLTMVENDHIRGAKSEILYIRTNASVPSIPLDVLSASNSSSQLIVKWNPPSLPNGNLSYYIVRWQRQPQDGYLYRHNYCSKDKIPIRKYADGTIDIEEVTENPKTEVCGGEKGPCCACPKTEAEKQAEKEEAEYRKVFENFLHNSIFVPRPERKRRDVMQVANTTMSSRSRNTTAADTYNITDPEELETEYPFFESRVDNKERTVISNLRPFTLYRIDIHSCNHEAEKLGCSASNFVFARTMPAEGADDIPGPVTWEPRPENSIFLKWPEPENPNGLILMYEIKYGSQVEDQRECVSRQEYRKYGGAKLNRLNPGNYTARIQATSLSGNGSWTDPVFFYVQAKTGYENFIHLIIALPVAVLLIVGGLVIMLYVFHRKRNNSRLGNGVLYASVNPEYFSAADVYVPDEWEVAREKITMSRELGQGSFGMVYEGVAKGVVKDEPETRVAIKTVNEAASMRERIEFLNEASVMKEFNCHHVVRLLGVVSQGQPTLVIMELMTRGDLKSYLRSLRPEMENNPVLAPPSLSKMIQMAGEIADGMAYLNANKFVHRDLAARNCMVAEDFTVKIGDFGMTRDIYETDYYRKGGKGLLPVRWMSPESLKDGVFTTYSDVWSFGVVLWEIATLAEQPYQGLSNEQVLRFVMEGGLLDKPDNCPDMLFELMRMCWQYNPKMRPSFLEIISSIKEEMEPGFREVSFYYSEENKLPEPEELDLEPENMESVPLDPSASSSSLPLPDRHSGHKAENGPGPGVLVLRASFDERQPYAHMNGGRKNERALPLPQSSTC
T2 sequence (P02550 whole entry): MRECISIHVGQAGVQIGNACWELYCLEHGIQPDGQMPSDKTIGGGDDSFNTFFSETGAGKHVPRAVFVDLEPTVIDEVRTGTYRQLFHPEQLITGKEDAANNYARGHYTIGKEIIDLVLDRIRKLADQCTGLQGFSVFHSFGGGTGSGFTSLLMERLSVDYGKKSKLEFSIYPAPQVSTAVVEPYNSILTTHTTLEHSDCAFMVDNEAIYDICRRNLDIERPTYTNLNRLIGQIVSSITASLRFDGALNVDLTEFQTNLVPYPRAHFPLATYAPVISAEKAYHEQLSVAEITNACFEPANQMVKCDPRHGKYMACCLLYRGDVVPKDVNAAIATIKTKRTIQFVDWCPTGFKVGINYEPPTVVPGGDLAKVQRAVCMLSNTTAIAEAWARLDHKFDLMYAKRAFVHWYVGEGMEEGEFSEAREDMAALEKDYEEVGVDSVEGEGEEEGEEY
T2 sequence (P02554 whole entry): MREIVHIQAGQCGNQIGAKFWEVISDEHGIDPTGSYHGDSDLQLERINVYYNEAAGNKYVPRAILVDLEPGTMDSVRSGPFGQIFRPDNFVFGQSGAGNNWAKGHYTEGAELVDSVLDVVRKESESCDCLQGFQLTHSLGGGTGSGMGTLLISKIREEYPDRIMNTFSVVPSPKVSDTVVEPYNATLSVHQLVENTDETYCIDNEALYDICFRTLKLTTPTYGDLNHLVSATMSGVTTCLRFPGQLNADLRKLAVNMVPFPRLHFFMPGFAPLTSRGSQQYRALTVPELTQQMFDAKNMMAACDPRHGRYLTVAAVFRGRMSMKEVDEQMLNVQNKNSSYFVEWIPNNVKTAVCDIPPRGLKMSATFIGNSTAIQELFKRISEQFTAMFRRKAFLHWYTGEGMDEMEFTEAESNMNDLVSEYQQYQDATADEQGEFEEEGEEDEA

inhibition at 10 µM ([1]; 10 μM compound): 51%
remaining activity at 10 µM ([1]; 10 μM compound, read-out: residual activity, MERK): 49%
remaining activity at 50 µM ([1]; 50 μM compound, read-out: residual activity, MERK): 12%
EC50 [3]: 1300 ± 400 nM
Selectivity score (portion of kinases inhibited more than 50% in relation to all tested kinases) ([5]; 10 μM compound): 0.003
Selectivity score (portion of kinases inhibited more than 50% in relation to all tested kinases) ([5]; 50 μM compound): 0.203
remaining activity at 10 µM ([6]; 10 μM compound): 73%
remaining activity at 50 µM ([6]; 50 μM compound): 15%
SMILES: O=C(CCCc1ccc(-c2cnc3ccccc3c2)cc1)Nc1ccc(O)cc1 [Compound 1-08, N-(4-hydroxyphenyl)-4-(4-(quinolin-3-yl)phenyl)butanamide]
effect on tubulin polymerisation compared to control [2]: inhibited tubulin polymerisation in a dose-dependent manner
effect on microtubules ([4]; 1 and 5 μM, FIG. 10B): disassembly of microtubules
number of multinucleated cells ([4]; 1 and 5 μM, FIGS. 10B and 10C): dose-dependent increase in the number of multinucleated cells
mitotic spindle formation ([4]; 48 h, FIG. 10D): defective spindle formation and chromosome misalignment

From patent US10745355B2, “Anti-cancer compounds” (THE UNIVERSITY OF SYDNEY, priority 2015, dated 2020)
